Measured values: patent US4309559A, “Sulphonamides useful as pesticides” (FBC Limited, priority 1977, dated 1982)
Like-named read-outs stand apart in the source and are kept apart here.

Legend:
[1] = tested on: barley powdery mildew Erysiphe graminis; test: Barley powdery mildew control on barley plants; type: in vivo; conditions: 2000 ppm; soil and leaves; 10 days; controls less than 5%
[2] = tested on: potato blight, Phytophthora infestans; type: in vivo; conditions: 5 days, controls less than 5%

SMILES	% Control, barley powdery mildew [1] [%]	% Control, potato blight ([2]; 125 ppm) [%]	% Control, potato blight ([2]; 500 ppm) [%]	% Control, potato blight ([2]; 2,000 ppm) [%]
Cc1cccc(C)c1N(CCCC#N)S(C)(=O)=O [Example 146]	92	–	–	–
CS(=O)(=O)N(CCCC#N)c1ccc(Cl)c(Cl)c1 [Example 147]	96	–	–	–
Cc1ccc(N(CCCC#N)S(C)(=O)=O)cc1C [Example 148]	89	–	–	–
CC(=O)CN(c1c(C)cccc1C)S(C)(=O)=O [Example 211, N-2-oxopropyl-2',6'-dimethyl-methanesulphonanilide]	–	90	94	99
COC(C)(CN(c1c(C)cccc1C)S(C)(=O)=O)OC [Example 224, N-(2,2-dimethoxypropyl)-2',6'-dimethyl-methanesulphonanilide]	–	–	55	98
Cc1cccc(C)c1N(CC1(C)OCCO1)S(C)(=O)=O [Example 231, N-[(2-methyl-1,3-dioxolan-2-yl)methyl]-2',6'-dimethylmethanesulphonanilide]	–	–	–	98
